Like-named read-outs stand apart in the source and are kept apart here.
What was measured:
[1] = Pharmacokinetics in control rats after gavage of JYPs; assay type: in vivo, Sprague Dawley (SD) rats; details: for half-life / Tmax / AUC(0-inf) / AUC(0-t) / Cmax / MRT last / MRT inf: male, rat, plasma; for Tmax: po; for MRT last: read-out: MRT(0-t); for MRT inf: read-out: MRT(0-∞)
Source text: According to the established method for the analysis of serum biological samples, the pharmacokinetics of various components of rat serum were investigated after the administration of different dosages of JYPs to control rats.
For the control experiment, healthy male Sprague Dawley (SD) rats of SPF grade ([…] ± 20 g) were purchased from Sipeifu (Beijing) Biotechnology Co., Ltd. (Beijing, China), Animal Quality Certificate No. 110324220102348616. For the ADHD model rats, healthy male SHR rats of SPF grade, weighing 220 ± 20 g, were purchased from SBF (Beijing) Biotechnology Co., Ltd. (Beijing, China), License No. SCXK (Yu) 2019-0010. The animals were accommodated in the Animal Center of Henan University of Traditional Chinese Medicine, which successfully underwent an ethical audit with ethics number DWLL202208003. The animals were bred under controlled conditions at a temperature of 24 °C and a relative humidity of 50 ± 2%. Before the experiment, the animals abstained from eating for 12 h and had unrestricted access to water. The feeding and experimental research conducted on the experimental animals adhered to the laws outlined in the Management of Experimental Animals in Henan Province.
JYPs were ground into a fine powder and sieved through 60-mesh sieves; then, 20 g of fine JYP powder was taken, having been weighed precisely. A precise volume of 50 mL of pure water was added and mixed well to prepare a 0.4 g/mL suspension solution of JYPs, which was then stored in the refrigerator at 4 °C.
This study involved 24 healthy male SD rats with a body mass of 220 ± 20 g and 24 healthy male ADHD rats with a body mass of 220 ± 20 g. Subjects abstained from food for a duration of 12 h before the experiment and consumed water without restriction. Both kinds of rats were randomly divided into four groups: a blank group, given an equal dose of water intragastrically, and 3 different administration groups: rats given the equivalent human dose of JYPs by gavage in doses of 1.080 g/kg/d, 2.160 g/kg/d, and 4.320 g/kg/d. Tail vein blood was collected at 0.083, 0.25, 0.5, 0.75, 1, 1.5, 2, 3, 4, 6, 8, 12, 18, and 24 h after dosing. About 0.5 mL of blood was collected in sodium heparin centrifugal tubes, then centrifuged at 4 °C for 10 min at a speed of 3500r/min. We took the upper layer and placed it at −80 °C for preservation.
We took 200 μL of plasma, added 600 μL of methanol solution and 50 μL of internal standard (100 ng/mL), and subjected it to shaking for 5 min, followed by centrifugation at 4 °C at 12,000 r/min for 10 min. The supernatant was collected and allowed to dry, then reconstituted with 50 μL of 50% methanol and centrifuged at 4 °C at 14,000 r/min for a further 10 min. The supernatant after this process was taken as the test solution. A volume of 5 μL was used for UPLC-MS analysis. The drug concentration in plasma was calculated with the aid of the internal standard.
Chromatographic conditions: Hypersil GOLD (100 × 2.1 mm, 1.9 μm) column; column temperature 35 °C; mobile phase acetonitrile (A)/0.1% formic acid aqueous solution (B); gradient elution; gradient elution program: 0–0.5 min (95% B–95% B), 0.5–8 min (95% B–50% B), 8–14 min (50% B–20% B), 14–20 min (20% B–5% B), 20–22 min (5% B–5% B), 22–25 min (95% B–95% B); flow rate 0.2 mL/min; injection volume 5 μL.

[2] = set-up: method as in PMID 32135035; details: rats, oral dosing; cited from earlier work
[3] = Sprague Dawley, oral JYPs, range over compounds and doses, read-out: half-life (t1/2)
[4] = Sprague Dawley, oral JYPs, read-out: peak time (Tmax)
[5] = Sprague-Dawley, 1.08 g/kg/day, oral JYPs low dose 1.080 g/kg/d (1st of 3 values)
[6] = Sprague-Dawley, 1.08 g/kg/day, oral JYPs low dose 1.080 g/kg/d (1st of 3 values), read-out: t1/2 (converted)
[7] = Sprague-Dawley, 2.16 g/kg/day, oral JYPs medium dose 2.160 g/kg/d (2nd of 3 values)
[8] = Sprague-Dawley, 2.16 g/kg/day, oral JYPs medium dose 2.160 g/kg/d (2nd of 3 values), read-out: t1/2 (converted)
[9] = Sprague-Dawley, 4.32 g/kg/day, oral JYPs high dose 4.320 g/kg/d (3rd of 3 values)
[10] = Sprague-Dawley, 4.32 g/kg/day, oral JYPs high dose 4.320 g/kg/d (3rd of 3 values), read-out: t1/2 (converted)
[11] = Sprague-Dawley, 1.08 g/kg/day, oral JYPs low dose 1.080 g/kg/d (1st of 3 values), read-out: Tmax
[12] = Sprague-Dawley, 2.16 g/kg/day, oral JYPs medium dose 2.160 g/kg/d (2nd of 3 values), read-out: Tmax
[13] = Sprague-Dawley, 4.32 g/kg/day, oral JYPs high dose 4.320 g/kg/d (3rd of 3 values), read-out: Tmax
[14] = oral JYPs high dose 4.320 g/kg/d (3rd of 3 values)
[15] = oral JYPs low dose 1.080 g/kg/d (1st of 3 values)
[16] = oral JYPs medium dose 2.160 g/kg/d (2nd of 3 values)

Row | SMILES | half-life [1, 3] [h] | Tmax [1, 4] [h] | AUC(0-inf) [1, 5] [ng·h/mL] | AUC(0-t) [1, 5] [ng·h/mL] | Cmax [1, 5] [ng/mL] | MRT inf [1, 5] [h] | half-life [1, 6] [h] | AUC(0-t) [1, 7] [ng·h/mL] | Cmax [1, 7] [ng/mL] | MRT last [1, 7] [h] | MRT inf [1, 7] [h] | half-life [1, 8] [h] | AUC(0-inf) [1, 9] [ng·h/mL] | AUC(0-t) [1, 9] [ng·h/mL] | Cmax [1, 9] [ng/mL] | MRT last [1, 9] [h] | MRT inf [1, 9] [h] | half-life [1, 10] [h] | Tmax [1, 11] [h] | Tmax [1, 12] [h] | further results
1 | CCC/C=C1\OC(=O)C2=C1CCC=C2 [Z-Ligustilide] | 14.4 to 24 | < 2 | 40.8 ± 9.33 | 28.7 ± 8.22 | 3.37 ± 1.11 | 20.4 ± 8.24 | 15.4 ± 5.99 | 32.7 ± 6.04 | 4.47 ± 1.9 | 8.96 ± 0.63 | 32 ± 20.9 | 24 ± 16.9 | 53.4 ± 9.38 | 36.5 ± 7.42 | 5.27 ± 1.27 | 8.76 ± 0.37 | 21.6 ± 6.2 | 16.4 ± 5.4 | 1.67 ± 0.52 | 1.17 ± 0.41 | MRT last [1, 5]: 8.54 ± 1.12 h; AUC(0-inf) [1, 7]: 58.6 ± 20.7 ng·h/mL; Tmax [1, 13]: 1.13 ± 0.44 h; AUMC(0-t) [1, 14]: 319.41± 64.35 ng/mL*(h)²; AUMC(0-ꝏ) [1, 14]: 1163.41± 438.24 ng/mL*(h)²; AUMC(0-t) [1, 15]: 244.45± 72.75 ng/mL*(h)²; AUMC(0-ꝏ) [1, 15]: 839.61± 369.47 ng/mL*(h)²; AUMC(0-t) [1, 16]: 291.74± 50.18 ng/mL*(h)²; AUMC(0-ꝏ) [1, 16]: 2206.47± 2197.92 ng/mL*(h)²; oral bioavailability [2]: relatively poor
2 | C[C@H]1O[C@@H](O[C@H]2CC[C@@]3(C)[C@@H](CC[C@]4(C)[C@@H]3C=C[C@]35OC[C@@]6(CCC(C)(C)C[C@H]63)[C@H](O)C[C@]54C)[C@]2(C)CO)[C@H](O)[C@@H](O[C@@H]2O[C@H](CO)[C@@H](O)[C@H](O)[C@H]2O)[C@H]1O [Saikosaponin D] | 7.52 to 13.7 | < 1 | 97.3 ± 56.5 | 79.6 ± 44.6 | 21.5 ± 5.52 | 13.4 ± 4.81 | 11.4 ± 4.14 | 96.8 ± 29.3 | 30.1 ± 6.87 | 6.87 ± 0.65 | 13.3 ± 6.43 | 10.9 ± 6.69 | 157 ± 34.9 | 116 ± 12.3 | 41.8 ± 17.7 | 7.1 ± 1.12 | 16.6 ± 6.52 | 13.7 ± 5.61 | 0.43 ± 0.23 | 0.54 ± 0.1 | MRT last [1, 5]: 7.08 ± 1.57 h; AUC(0-inf) [1, 7]: 117 ± 33.2 ng·h/mL; Tmax [1, 13]: 0.33 ± 0.13 h; AUMC(0-t) [1, 14]: 830.12± 197.07 ng/mL*(h)²; AUMC(0-ꝏ) [1, 14]: 2785.93± 1472.47 ng/mL*(h)²; Vss [1, 14]: 68432.42 ± 15413.77 mL; AUMC(0-t) [1, 15]: 592.40± 473.29 ng/mL*(h)²; AUMC(0-ꝏ) [1, 15]: 1331.60± 1006.07 ng/mL*(h)²; Clearances [1, 15]: 2081.51 ± 796.95 mL/h; Vss [1, 15]: 27762.67 ± 16738.07 mL; AUMC(0-t) [1, 16]: 662.12± 211.50 ng/mL*(h)²; AUMC(0-ꝏ) [1, 16]: 1586.66± 988.85 ng/mL*(h)²; Vss [1, 16]: 41378.73 ± 24017.48 mL
3 | C[C@H]1O[C@@H](O[C@H]2CC[C@@]3(C)[C@@H](CC[C@]4(C)[C@@H]3C=C[C@]35OC[C@@]6(CCC(C)(C)C[C@H]63)[C@@H](O)C[C@]54C)[C@]2(C)CO)[C@H](O)[C@@H](O[C@@H]2O[C@H](CO)[C@@H](O)[C@H](O)[C@H]2O)[C@H]1O [Saikosaponin A] | 7.52 to 13.7 | < 1 | 135 ± 49.8 | 120 ± 40.6 | 38.9 ± 10.4 | 9.57 ± 3.88 | 7.52 ± 2.66 | 149 ± 49.5 | 47.4 ± 11.7 | 6.42 ± 0.6 | 13.3 ± 9.41 | 10.8 ± 9.21 | 245 ± 44.7 | 221 ± 42.5 | 67.4 ± 14.2 | 6.07 ± 1.19 | 9.11 ± 3.69 | 7.8 ± 3.3 | 0.53 ± 0.22 | 0.39 ± 0.17 | AUMC(0-t) [1, 14]: 1333.05± 317.31 ng/mL*(h)²; AUMC(0-ꝏ) [1, 14]: 2265.45± 1085.76 ng/mL*(h)²; Clearances [1, 14]: 4464.90 ± 760.17 mL/h; AUMC(0-t) [1, 15]: 792.28± 390.55 ng/mL*(h)²; AUMC(0-ꝏ) [1, 15]: 1355.37± 1006.84 ng/mL*(h)²; MRT(0-t) [1, 15]: 6.55 ± 1.64 h; Vss [1, 15]: 21125.87 ± 12315.99 mL; AUC(0-∞) [1, 16]: 177.04 ± 46.52 ng·h/mL; AUMC(0-t) [1, 16]: 935.87± 261.97 ng/mL*(h)²; AUMC(0-ꝏ) [1, 16]: 2307.92± 1659.75 ng/mL*(h)²; Clearances [1, 16]: 3201.17 ± 894.28 mL/h; Vss [1, 16]: 42581.43 ± 30523.07 mL

Reference: publication PMC10976160, “Comparative Pharmacokinetics Research of 13 Bioactive Components of Jieyu Pills in Control and Attention Deficit Hyperactivity Disorder Model Rats Based on UPLC-Orbitrap Fusion MS” (Molecules, 2024)
